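Assay format: 96-well plates, 48-hour exposure. GI50 = concentration required for 50% inhibition of growth.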 Activity calls are given as the source filed them. No stated cut-off is given here; in the data, active = GI50 up to about 1.1 µM and inactive = higher.
Tests used:
Test in all cases: inhibition of tumour cell growth, NCI panel, 48 h
[1] = tested on: M14
[2] = tested on: HOP-92
[3] = tested on: NCI-H460
[4] = tested on: MCF7
[5] = tested on: SW-620
[6] = tested on: EKVX
[7] = tested on: NCI-H23
[8] = tested on: K562
[9] = tested on: SK-OV-3
[10] = tested on: MDA-N
[11] = tested on: MDA-MB-231
[12] = tested on: CCRF-CEM
[13] = tested on: OVCAR-8
[14] = tested on: OVCAR-5
[15] = tested on: SK-MEL-2
[16] = tested on: T47D

Row | Structure (SMILES) | GI50 [1] | GI50 [2] | GI50 [3] | GI50 [4] | GI50 [5] | GI50 [6] | GI50 [7] | GI50 [8] | GI50 [9] | GI50 [10] | GI50 [11] | GI50 [12] | GI50 [13] | GI50 [14] | GI50 [15] | GI50 [16]
1 | CC1(C)COC(c2ccc(C(=O)c3ccc(Cl)cc3)cc2)=N1 | > 100 µM (inactive) | 85.1 µM (inactive) | > 100 µM (inactive) | 86.5 µM (inactive) | > 100 µM (inactive) | 44.6 µM (inactive) | 6.95 µM (inactive) | 28.6 µM (inactive) | > 100 µM (inactive) | > 100 µM (inactive) | > 100 µM (inactive) | > 100 µM (inactive) | 84.9 µM (inactive) | > 100 µM (inactive) | > 100 µM (inactive) | –
2 | O=C(Oc1ccc(OC(Oc2ccccc2)c2ccccc2)cc1)c1ccccc1 (centres undefined) | 8.38 µM (inactive) | – | > 63.2 µM (inactive) | 29.8 µM (inactive) | > 31.6 µM (inactive) | 29.7 µM (inactive) | 6.21 µM (inactive) | > 31.6 µM (inactive) | 27.2 µM (inactive) | 14.4 µM (inactive) | 28 µM (inactive) | 17.3 µM (inactive) | > 31.6 µM (inactive) | > 74.1 µM (inactive) | 17.3 µM (inactive) | 50 µM (inactive)
3 | O=[N+]([O-])c1ccc2nc(=S)[nH]n2c1 | > 100 µM (inactive) | > 100 µM (inactive) | > 100 µM (inactive) | > 100 µM (inactive) | > 100 µM (inactive) | > 100 µM (inactive) | > 100 µM (inactive) | > 100 µM (inactive) | > 100 µM (inactive) | – | > 100 µM (inactive) | > 100 µM (inactive) | > 100 µM (inactive) | > 100 µM (inactive) | > 100 µM (inactive) | > 100 µM (inactive)
4 | O=C1C(Cl)=C(N[C@@H](Cc2ccccc2)C(=O)OCc2ccccc2)C(=O)c2c(O)ccc(O)c21 | 3.8 µM (inactive) | 6.3 µM (inactive) | 4.59 µM (inactive) | – | 5.65 µM (inactive) | 7.18 µM (inactive) | 4.42 µM (inactive) | – | > 10 µM (inactive) | 2.89 µM (inactive) | 2.55 µM (inactive) | 0.485 µM (active) | 3.73 µM (inactive) | 6.18 µM (inactive) | 6.7 µM (inactive) | > 10 µM (inactive)
5 | C=CCC1(OCc2ccccc2)C(=O)C(=O)OC1C1COC(C)(C)O1 (centres undefined) | > 100 µM (inactive) | – | > 100 µM (inactive) | > 100 µM (inactive) | > 100 µM (inactive) | > 100 µM (inactive) | > 100 µM (inactive) | > 100 µM (inactive) | > 100 µM (inactive) | > 100 µM (inactive) | > 100 µM (inactive) | > 100 µM (inactive) | > 100 µM (inactive) | > 100 µM (inactive) | > 100 µM (inactive) | > 100 µM (inactive)
6 | COc1cc2c(cc1OCCCCCOc1cc3c(cc1OC)C(=O)N1CCC[C@H]1CN3)N=C[C@@H]1CCCN1C2=O | 2.77 µM (inactive) | 17.2 µM (inactive) | 3.77 µM (inactive) | 15.8 µM (inactive) | 4.25 µM (inactive) | 39.6 µM (inactive) | 4.8 µM (inactive) | 3.49 µM (inactive) | 30.5 µM (inactive) | – | 2.49 µM (inactive) | 0.233 µM (active) | 2.58 µM (inactive) | 16.9 µM (inactive) | 3.27 µM (inactive) | 3.5 µM (inactive)
7 | COc1cc(OC)c(C/C=C/c2ccccc2)cc1O | 19 µM (inactive) | 13.6 µM (inactive) | 17.3 µM (inactive) | – | 18.9 µM (inactive) | 17.2 µM (inactive) | 17.4 µM (inactive) | 14.4 µM (inactive) | – | 18.1 µM (inactive) | 17.9 µM (inactive) | 22.1 µM (inactive) | 16.1 µM (inactive) | 26.6 µM (inactive) | 19.4 µM (inactive) | 10.6 µM (inactive)
8 | CC1(C)[C@H]2CC[C@@]13C(=O)N1C(=O)O[C@@H]([C@H]1Cl)C(Cl)(COCc1ccccc1)C(=O)OCCO[C@H]3C2 (some centres undefined) | 69.2 µM (inactive) | > 100 µM (inactive) | 53.6 µM (inactive) | 44.2 µM (inactive) | 66.8 µM (inactive) | 95.9 µM (inactive) | 40.9 µM (inactive) | 24.3 µM (inactive) | > 100 µM (inactive) | 64.9 µM (inactive) | – | 38.5 µM (inactive) | > 100 µM (inactive) | > 100 µM (inactive) | 85.5 µM (inactive) | 43.1 µM (inactive)
9 | COc1ccc(OC)c2c1ccc1c(C)c3ccccc3c(C)c12 | 82 µM (inactive) | – | 71.9 µM (inactive) | 20.9 µM (inactive) | – | – | 89.5 µM (inactive) | 51.8 µM (inactive) | – | 79.1 µM (inactive) | 16 µM (inactive) | > 100 µM (inactive) | > 100 µM (inactive) | > 100 µM (inactive) | > 100 µM (inactive) | > 100 µM (inactive)
10 | S=C(Nc1ccccc1)N(Cc1ccccc1)c1ccccc1 | 40.1 µM (inactive) | 29.9 µM (inactive) | 28.6 µM (inactive) | 33.7 µM (inactive) | 13.7 µM (inactive) | 17.5 µM (inactive) | > 100 µM (inactive) | 29.7 µM (inactive) | > 100 µM (inactive) | – | 45.6 µM (inactive) | 28.4 µM (inactive) | – | > 100 µM (inactive) | 17.3 µM (inactive) | 56 µM (inactive)
11 | Cc1ccc(C(=O)C2=CN=C3C(=O)N(c4ccccc4)N(C)C3(C)C2=N)cc1 (centres undefined) | > 100 µM (inactive) | > 100 µM (inactive) | > 100 µM (inactive) | > 100 µM (inactive) | > 100 µM (inactive) | > 100 µM (inactive) | > 100 µM (inactive) | > 100 µM (inactive) | > 100 µM (inactive) | > 100 µM (inactive) | > 100 µM (inactive) | > 100 µM (inactive) | > 100 µM (inactive) | > 100 µM (inactive) | > 100 µM (inactive) | –
12 | CC(C)(C)OC(=O)NC1CCCC1C(=O)C1=CCCC1 (centres undefined) | > 100 µM (inactive) | > 100 µM (inactive) | > 100 µM (inactive) | – | > 100 µM (inactive) | – | 85.7 µM (inactive) | > 100 µM (inactive) | > 100 µM (inactive) | 53 µM (inactive) | 82.8 µM (inactive) | 74.6 µM (inactive) | > 100 µM (inactive) | > 100 µM (inactive) | > 100 µM (inactive) | 28.6 µM (inactive)
13 | CCOC(=O)/C(=C\NC[C@@H](C)O)c1nc2ccccc2[nH]1 | 56 µM (inactive) | 72.9 µM (inactive) | 33.3 µM (inactive) | 60.8 µM (inactive) | > 100 µM (inactive) | > 100 µM (inactive) | 54.5 µM (inactive) | – | > 100 µM (inactive) | > 100 µM (inactive) | – | – | 64 µM (inactive) | > 100 µM (inactive) | – | –
14 | CCOP(=O)(OCC)C(Nc1ccc(Br)cc1)c1cccc([N+](=O)[O-])c1 (centres undefined) | 17.1 µM (inactive) | 20.7 µM (inactive) | 14.1 µM (inactive) | – | 16.9 µM (inactive) | 2.99 µM (inactive) | 20.7 µM (inactive) | 12 µM (inactive) | 14.6 µM (inactive) | 19.2 µM (inactive) | 15 µM (inactive) | 17.8 µM (inactive) | 24.6 µM (inactive) | 24.1 µM (inactive) | 16.7 µM (inactive) | 12.6 µM (inactive)
15 | CCOC(=O)CSC1NC(C(=O)OC)CC1OC (centres undefined) | > 100 µM (inactive) | > 100 µM (inactive) | 67.6 µM (inactive) | > 100 µM (inactive) | > 100 µM (inactive) | > 100 µM (inactive) | > 100 µM (inactive) | > 100 µM (inactive) | > 100 µM (inactive) | > 100 µM (inactive) | > 100 µM (inactive) | 75 µM (inactive) | > 100 µM (inactive) | > 100 µM (inactive) | > 100 µM (inactive) | –
16 | CNc1ncc(-c2nnnn2-c2ccccc2)c(CN(C)C)n1 | > 100 µM (inactive) | > 100 µM (inactive) | > 100 µM (inactive) | > 100 µM (inactive) | > 100 µM (inactive) | > 100 µM (inactive) | > 100 µM (inactive) | > 100 µM (inactive) | > 100 µM (inactive) | – | > 100 µM (inactive) | > 100 µM (inactive) | > 100 µM (inactive) | > 100 µM (inactive) | > 100 µM (inactive) | > 100 µM (inactive)
17 | Nc1c(-c2nc3ccccc3s2)c2ccc([N+](=O)[O-])cc2c(=O)n1-c1cccc(C(=O)O)c1 | – | 24.2 µM (inactive) | 27 µM (inactive) | – | 29.1 µM (inactive) | – | 25.4 µM (inactive) | – | – | 45.1 µM (inactive) | 17.9 µM (inactive) | 22.8 µM (inactive) | 27.7 µM (inactive) | – | 20.9 µM (inactive) | 21 µM (inactive)
18 | O=[N+]([O-])c1ccc(C(c2c[nH]c3ccccc23)c2c[nH]c3ccccc23)cc1 | 11.7 µM (inactive) | – | 3.57 µM (inactive) | 2.24 µM (inactive) | 12.4 µM (inactive) | 19.4 µM (inactive) | 7.1 µM (inactive) | 6.61 µM (inactive) | 16.8 µM (inactive) | 11.6 µM (inactive) | 12.4 µM (inactive) | 0.309 µM (active) | 14.7 µM (inactive) | 23.6 µM (inactive) | 7.31 µM (inactive) | 0.653 µM (active)
19 | O=C(Cn1ccnc1[N+](=O)[O-])NCCO [ETANIDAZOLE] | > 100 µM (inactive) | > 100 µM (inactive) | 27.5 µM (inactive) | > 100 µM (inactive) | > 100 µM (inactive) | > 100 µM (inactive) | > 100 µM (inactive) | > 100 µM (inactive) | > 100 µM (inactive) | – | > 100 µM (inactive) | > 100 µM (inactive) | > 100 µM (inactive) | > 100 µM (inactive) | > 100 µM (inactive) | > 100 µM (inactive)

— ChEMBL document CHEMBL1201862, “PubChem BioAssay data set” (2004)
